Assay results as given in patent US7067619B2, “Integrin-binding peptides” (La Jolla Cancer Research Foundation, priority 1993, dated 2006).
Bridge positions count the residues as written; N and C are the ends. Ends that are not written are not given here. Peptide text beside a SMILES is read from it.

Assays:
[1] = molecular target: αvβ5 integrin (Homo sapiens, UniProt P06756+P18084); assay: Panning and binding of peptide-displaying phage on αvβ5 integrin; parameters: The αvβ3, αvβ5 and α5β1 integrins were isolated from human placental extracts; from tissue; host or cells: human placenta
Chain of αvβ5 integrin (P06756 31-889 limits assumed): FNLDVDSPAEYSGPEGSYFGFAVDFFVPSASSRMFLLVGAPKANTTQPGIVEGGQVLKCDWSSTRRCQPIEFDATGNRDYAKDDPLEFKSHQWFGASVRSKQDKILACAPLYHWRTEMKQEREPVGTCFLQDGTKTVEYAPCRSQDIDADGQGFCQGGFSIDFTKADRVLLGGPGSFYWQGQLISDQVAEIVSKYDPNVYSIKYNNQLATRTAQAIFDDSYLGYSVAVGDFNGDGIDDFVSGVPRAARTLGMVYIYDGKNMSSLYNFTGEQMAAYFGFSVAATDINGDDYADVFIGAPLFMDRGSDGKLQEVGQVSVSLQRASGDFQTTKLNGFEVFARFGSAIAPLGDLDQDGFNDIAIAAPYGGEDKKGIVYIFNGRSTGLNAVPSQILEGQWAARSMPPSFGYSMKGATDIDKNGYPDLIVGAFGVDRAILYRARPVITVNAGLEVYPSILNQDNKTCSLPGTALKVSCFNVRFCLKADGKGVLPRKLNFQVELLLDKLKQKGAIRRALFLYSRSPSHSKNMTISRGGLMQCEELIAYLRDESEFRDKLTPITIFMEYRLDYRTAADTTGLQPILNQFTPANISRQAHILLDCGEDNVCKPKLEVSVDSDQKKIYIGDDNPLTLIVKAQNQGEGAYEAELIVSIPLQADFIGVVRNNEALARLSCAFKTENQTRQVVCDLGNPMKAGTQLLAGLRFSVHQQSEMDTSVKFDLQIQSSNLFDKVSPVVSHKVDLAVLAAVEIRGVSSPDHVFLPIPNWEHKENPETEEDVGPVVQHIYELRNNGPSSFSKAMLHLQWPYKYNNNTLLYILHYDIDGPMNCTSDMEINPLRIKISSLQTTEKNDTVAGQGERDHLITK
Chain of αvβ5 integrin (P06756 891-1048 partner limits assumed): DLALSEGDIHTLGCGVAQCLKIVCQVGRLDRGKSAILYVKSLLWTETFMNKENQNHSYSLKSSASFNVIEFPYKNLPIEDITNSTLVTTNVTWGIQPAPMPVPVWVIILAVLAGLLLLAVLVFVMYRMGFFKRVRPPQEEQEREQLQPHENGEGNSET
Chain of αvβ5 integrin (P18084 24-799): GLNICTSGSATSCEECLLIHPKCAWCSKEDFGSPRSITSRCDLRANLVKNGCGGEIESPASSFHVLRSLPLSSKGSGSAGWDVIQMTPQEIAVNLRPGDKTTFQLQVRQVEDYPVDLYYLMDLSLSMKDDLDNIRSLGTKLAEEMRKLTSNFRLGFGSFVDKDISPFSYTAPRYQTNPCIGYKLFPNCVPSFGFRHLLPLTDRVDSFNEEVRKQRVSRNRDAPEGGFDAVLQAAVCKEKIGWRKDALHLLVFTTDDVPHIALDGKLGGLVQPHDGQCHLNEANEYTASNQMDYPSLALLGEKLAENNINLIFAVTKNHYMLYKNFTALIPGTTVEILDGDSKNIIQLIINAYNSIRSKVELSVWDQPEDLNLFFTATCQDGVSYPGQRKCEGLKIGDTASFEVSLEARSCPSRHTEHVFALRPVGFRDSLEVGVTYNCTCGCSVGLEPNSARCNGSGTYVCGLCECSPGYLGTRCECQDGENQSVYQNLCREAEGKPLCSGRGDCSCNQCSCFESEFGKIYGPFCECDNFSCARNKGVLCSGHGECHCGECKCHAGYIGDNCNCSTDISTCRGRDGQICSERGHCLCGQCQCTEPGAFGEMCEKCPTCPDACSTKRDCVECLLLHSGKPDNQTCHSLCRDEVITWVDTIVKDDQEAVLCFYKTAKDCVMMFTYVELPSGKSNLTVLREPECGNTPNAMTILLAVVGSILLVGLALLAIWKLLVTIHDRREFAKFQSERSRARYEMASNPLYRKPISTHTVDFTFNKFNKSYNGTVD
Source text: (§1) In addition, most of the phage-binding activity in the αvβ3 preparation was captured into microliter wells coated with antibodies against the αv or β3 subunits as described previously (Koivunen et al., J. Biol. Chem., 268:20205–10 (1993). The αIIbβ3 integrin was isolated from outdated platelets (Pytela et al., Science, 231:1559–1562 (1986)).
(§2) Peptide libraries were constructed in fuse 5 vector (Scott and Smith, Science 249:386–390 (1990)) as described previously (Koivunen et al., J. Cell Biol., 124:373–380 (1994). The CX5C, CX6C, CX7C and CX9 [SEQ ID NOs:39–42, respectively] libraries were prepared using synthetic oligonucleotides containing core sequences TGT(NNK)5TGT, TGT(NNK)6TGT, TGT(NNK)7TGT and TGT(NNK)9 [SEQ ID NOS:43–46, respectively] (N=equal molar mixture of A, C, G, T; K=G or T), respectively. The oligonucleotides were made double-stranded by PCR amplification with 5 cycles, purified and ligated to the N-terminus of pIII gene of fuse 5 vector. […]
(§3) Binding of individual cloned phage to integrins was studied in microliter wells as described in Koivunen et al., J. Cell. […] Phage that were bound were determined by their ability to infect F-pilus positive K91kan bacteria. Bacteria were grown overnight in microliter wells in the presence of tetracycline and the absorbance indicative of bacterial growth was read at 600 nm with an ELISA plate reader.

[2] = molecular target: αvβ3 integrin (Homo sapiens, UniProt P05106+P06756); assay: Panning and binding of peptide-displaying phage on αvβ3 integrin; parameters: The αvβ3, αvβ5 and α5β1 integrins were isolated from human placental extracts; from tissue; host or cells: human placenta; conditions: phage-displayed sequence
Chain of αvβ3 integrin (P06756 31-889 limits assumed): as the sequence (P06756 31-889 limits assumed) above
Chain of αvβ3 integrin (P06756 891-1048 partner limits assumed): as the sequence (P06756 891-1048 partner limits assumed) above
Chain of αvβ3 integrin (P05106 27-788): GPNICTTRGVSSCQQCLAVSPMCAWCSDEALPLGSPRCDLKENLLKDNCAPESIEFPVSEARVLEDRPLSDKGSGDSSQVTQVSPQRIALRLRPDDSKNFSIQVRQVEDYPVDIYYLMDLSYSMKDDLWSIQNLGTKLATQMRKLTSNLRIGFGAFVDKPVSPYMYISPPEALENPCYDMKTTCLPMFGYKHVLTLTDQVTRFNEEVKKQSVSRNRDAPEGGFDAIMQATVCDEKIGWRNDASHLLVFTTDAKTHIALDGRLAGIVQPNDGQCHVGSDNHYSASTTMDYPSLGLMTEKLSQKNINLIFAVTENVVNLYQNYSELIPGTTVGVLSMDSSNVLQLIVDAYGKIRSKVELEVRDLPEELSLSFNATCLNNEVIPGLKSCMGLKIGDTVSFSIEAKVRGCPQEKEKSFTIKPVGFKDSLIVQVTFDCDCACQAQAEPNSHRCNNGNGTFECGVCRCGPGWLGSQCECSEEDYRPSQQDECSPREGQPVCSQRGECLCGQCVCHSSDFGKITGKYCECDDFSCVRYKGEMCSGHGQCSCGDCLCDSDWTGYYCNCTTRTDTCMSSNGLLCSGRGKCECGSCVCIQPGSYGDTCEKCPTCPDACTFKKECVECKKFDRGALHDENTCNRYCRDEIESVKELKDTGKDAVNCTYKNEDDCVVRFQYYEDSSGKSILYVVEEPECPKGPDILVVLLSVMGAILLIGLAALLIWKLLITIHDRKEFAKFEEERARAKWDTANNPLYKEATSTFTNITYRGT
Source text: as §1, §2, §3

[3] = tested on: α5β1 integrin; assay: Cell attachment to immobilized […] peptide (B2/α27 vs B2/Cl cells); type: cell-based, human
Chain of α5β1 integrin (P08648 42-894 limits assumed): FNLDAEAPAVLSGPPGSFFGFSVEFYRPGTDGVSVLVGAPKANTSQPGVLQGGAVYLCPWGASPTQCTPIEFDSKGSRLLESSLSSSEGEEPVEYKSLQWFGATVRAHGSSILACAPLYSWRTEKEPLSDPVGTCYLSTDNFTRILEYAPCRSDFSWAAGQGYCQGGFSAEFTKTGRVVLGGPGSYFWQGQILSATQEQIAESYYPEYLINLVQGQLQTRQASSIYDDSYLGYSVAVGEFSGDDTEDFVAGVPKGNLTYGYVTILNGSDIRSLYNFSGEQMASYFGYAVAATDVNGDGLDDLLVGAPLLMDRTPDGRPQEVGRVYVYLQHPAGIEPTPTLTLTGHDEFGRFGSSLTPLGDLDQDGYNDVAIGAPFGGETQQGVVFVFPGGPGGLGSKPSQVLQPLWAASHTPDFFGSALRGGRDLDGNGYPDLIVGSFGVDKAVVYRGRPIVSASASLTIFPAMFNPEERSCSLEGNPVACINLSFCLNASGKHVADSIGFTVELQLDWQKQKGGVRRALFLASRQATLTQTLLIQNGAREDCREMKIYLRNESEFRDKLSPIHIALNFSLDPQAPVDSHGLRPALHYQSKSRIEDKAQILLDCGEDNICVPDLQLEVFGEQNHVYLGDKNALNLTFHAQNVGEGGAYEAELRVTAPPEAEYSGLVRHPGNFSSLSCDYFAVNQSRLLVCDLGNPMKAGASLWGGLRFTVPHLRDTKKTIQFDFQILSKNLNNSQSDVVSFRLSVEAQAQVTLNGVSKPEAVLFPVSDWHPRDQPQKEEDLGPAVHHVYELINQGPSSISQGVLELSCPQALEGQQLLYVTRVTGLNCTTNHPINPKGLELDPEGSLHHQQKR
Chain of α5β1 integrin (P08648 895-1049 limits assumed): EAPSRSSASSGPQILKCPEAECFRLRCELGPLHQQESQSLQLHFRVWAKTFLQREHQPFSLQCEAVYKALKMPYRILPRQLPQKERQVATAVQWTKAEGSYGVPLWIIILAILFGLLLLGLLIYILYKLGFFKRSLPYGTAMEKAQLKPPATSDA
Source text: (§4) Cell lines expressing fibronectin-binding integrins were used to determine peptide activities against these integrins in the cell attachment assay described by Ruoslahti et al., Meth. Enzymol., 144:803–831 (1982), which is incorporated herein by reference. Human plasma fibronectin was iodinated as described by Morla and Ruoslahti, J. Cell Biol., 118:421–429 (1992), which is incorporated herein by reference. Vitronectin was obtained from Telios Pharmaceuticals (San Diego, Calif.). […] Peptide was coated on plastic by incubating at 37° C. for 2 hours in phosphate buffered saline containing 0.25% glutaraldehyde to crosslink the peptide. Free binding sites on the plastic were blocked using BSA. Approximately 1×10^5 cells per well were allowed to attach for 1 hour in the presence or absence of competing peptides. Bound cells were quantitated by staining with 0.1% amido black.
In addition to the inhibition of cell attachment to natural ligands, attachment and inhibition assays were performed using the […] [SEQ ID NO:6] peptide as substrate. The microliter well were coated with […] [SEQ ID NO:6] using glutaraldehyde as described above. Briefly, peptide was coated on plastic by incubating at 37° C. for 2 hours in phosphate buffered saline containing 0.25% glutaraldehyde to crosslink the peptide and free binding sites on the plastic were blocked using BSA. The wells were then saturated with BSA followed by the addition of 50,000 B2/α27 or B2/Cl cells in the presence or absence of the indicated inhibitor. […] Bound cells were quantitated by staining with 0.1% amido black.

[4] = tested on: αvβ1 integrin; assay: Attachment of αvβ1-expressing B2/v7 cells to immobilized […] peptide; type: cell-based
Source text: as §4
In addition to the inhibition of cell attachment to natural ligands, attachment and inhibition assays were performed using the […] [SEQ ID NO:6] peptide as substrate. The microliter well were coated with […] [SEQ ID NO:6] using glutaraldehyde as described above. […] Bound cells were quantitated by staining with 0.1% amido black.

Q: Which “integrin preference of phage expressing the peptide” value ([1]; phage attachment experiments) does the source give for C[C@H](N)C(=O)N[C@H]1CSSC[C@@H](C(=O)NCC(=O)O)NC(=O)[C@H](Cc2ccccc2)NC(=O)[C@@H]2CSSC[C@H](NC(=O)[C@H](CC(=O)O)NC1=O)C(=O)N[C@@H](CCCNC(=N)N)C(=O)NCC(=O)N[C@@H](CC(=O)O)C(=O)N2 (H-ACDCRGDCFCG-OH; disulfide 2-10, 4-8) here?
A: bound preferentially to the αvβ5 integrin

Q: And the “binding of peptide-displaying phage to the αvβ5 integrin” value ([1]; phage-displayed sequence)?
A: bound strongly

Q: With “A*CPSRLDSPC*G (ACPSRLDSPCG; disulfide 2-10 (inferred))” as the compound, how does the “binding of peptide-displaying phage to the αvβ3 integrin” value [2] read?
A: bound to αvβ3

Q: For GACRRETAWACGA, which “promotion of cell adhesion by immobilized peptide” value ([3]; B2/α27 compared with B2/Cl cells, FIG. 8) is on record?
A: promoted α5β1-mediated adhesion

Q: And the “attachment of cell lines lacking these integrins or expressing non-human α5β1 to immobilized peptide” value ([3]; immobilized peptide)?
A: did not attach

Q: And the “inhibition of B2/α27 attachment to immobilized RRETAWA-containing peptide” value ([3]; inhibitor at 1 mM, FIG. 8)?
A: inhibited

Q: What about the “peptide coating concentration required to produce significant attachment” value [4] of the same compound?
A: 1 mg/mL
